Results: patent publication US20260191933A1, “PHARMACEUTICAL COMBINATIONS AND USES THEREOF” (The University of Melbourne, priority 2022, published 2026)

How the values were obtained:
[1] = system: 12-week HFHS fed obese mice; experiment: I.C.V. fluorosamine in obese mice: glucose tolerance and hyperinsulinemic-euglycemic clamps; assay type: in vivo, C57BL/6J mice
Procedure: For hyperinsulinemic-euglycemic clamps, mice were anesthetised under isoflurane and the right jugular vein was catheterised for infusions, as described previously by Dodd et al., 2018. Catheters were attached to an implant button (BMSW25, RWD Life Sciences, Shenzhen, China). Implant buttons were capped allowing for group mousing of mice and catheters were kept patent by flushing daily with 40 μL saline containing 200 units/mL heparin. On the day of the experiment, food was removed at 7:00 A.M. After 3.5 h fasting, a primed (1 min, 1.25 uCi/min) continuous infusion (0.05 uCi/min) of [3-3H]glucose (NET331A001MC, PerkinElmer, MA) was administered to measure whole-body glucose turnover, as described previously by Dodd et al., 2018. […]
Metabolic measurements were undertaken in the Melbourne Mouse Metabolic Phenotyping Platform (The University of Melbourne, Australia). […] The areas under glucose excursion curves were determined and expressed as mmol/l×min. Fasted (12 h fast) plasma insulin or glucose levels were determined using a Rat/Mouse Insulin ELISA (EZRMI-13K, Merck Millipore, CA) or an Accu-Check glucometer respectively. The HOMA-IR was calculated using the equation [(glucose×insulin)/405]. Adiposity was measured using TD-NMR minispec (Bruker Optics Inc., Billerica, MA). […]

[2] = system: insulin induced p-AKT signalling in the ARC; experiment: I.C.V. fluorosamine: insulin-induced p-AKT in the ARC; assay type: in vivo, C57BL/6J mice; details: following 10 days I.C.V. treatment
Procedure: Mice were injected intraperitoneally with vehicle (PBS) or insulin (3 mU/g, i.p., Actrapid, Nova Nordisk, Denmark) and mice were transcardially perfused (as described above) 15 min with 10% neutral buffered formalin. The brains were post-fixed for 16 h on a rocking platform at RT and then kept for two days in 30% sucrose in PBS to cryoprotect the tissue, before freezing on dry ice. 30 μm sections were cut in the coronal plane throughout the entire rostral-caudal extent of the hypothalamus. Sections were pre-treated for 10 mins in 0.3% glycine, washed in PBS-T and incubated for 10 min in 0.03% SDS. Sections were then blocked in 5% blocking buffer for 1 h at RT and incubated for 48 h with rabbit anti-p-AKT (Ser-473) (1:300; #4060, Cell Signaling Technology, Beverly, MA) in 1% blocking buffer. Sections were then incubated in 5% blocking buffer containing either goat anti-rabbit Alexa Fluor 647 (ab150083, Abcam, Cambridge, UK) or biotinylated goat anti-rabbit (BA-1000, Vector Laboratories, CA, no sodium azide in blocking buffer). […]

[3] = system: diet-induced obese mice; experiment: I.C.V. PZ6005 and/or S.C. liraglutide: I.P. GTT; assay type: in vivo, C57BL/6j mice; details: day 14; 6 hours fasted; compared with the control treatment
Procedure: Metabolic measurements were undertaken in the Melbourne Mouse Metabolic Phenotyping Platform (The University of Melbourne, Australia). Glucose tolerance tests were performed on 6 h fasted conscious mice respectively by injecting D-glucose (2 mg/g of lean body mass and 1 mg/g lean mass for db/db and HFHS+STZ mice) into the peritoneal cavity and measuring glucose in tail blood immediately before and at 15, 30, 45, 60, 90 and 120 min after injection using an Accu-Check glucometer (Roche, Germany). The areas under glucose excursion curves were determined and expressed as mmol/l×min. Fasted (12 h fast) plasma insulin or glucose levels were determined using a Rat/Mouse Insulin ELISA (EZRMI-13K, Merck Millipore, CA) or an Accu-Check glucometer respectively. The HOMA-IR was calculated using the equation [(glucose×insulin)/405]. Adiposity was measured using TD-NMR minispec (Bruker Optics Inc., Billerica, MA).

Structure (SMILES): CC(=O)NC1C(OC(C)=O)OC(COC(C)=O)[C@@H](F)C1OC(C)=O (stereo partly shown) [PZ6005, per-O-acetylated-4-F-N-acetylglucosamine]
- whole-body insulin sensitivity (GIR) ([1]; hyperinsulinemic-euglycemic clamps, weight matched obese mice, daily for 3 days I.C.V.): enhancement
- glucose tolerance ([1]; obese mice, I.C.V. for 10 days): improved glucose tolerance
- insulin induced p-AKT signalling in the ARC [2]: enhanced
- glucose excursion (I.P. GTT) [3]: reduced glucose excursion
